Test results reported in US20040132969A1, “Antibodies, peptides, analogs and uses thereof” (priority 2000, published 2004).
“Also recorded” adds a separate entry of the source. Where no end group is shown, it is not given here.

How the values were obtained:
HUVEC and fibroblasts [1] = test: Neutral Red cell metabolism cytotoxicity assay; type: cell-based, human; conditions: for cytotoxicity / cell viability, Neutral Red assay: HUVEC and fibroblast monocultures, 72 hours
Protocol: (§1) In order to determine whether the fibrin E analogue peptides WTM33, WTM34, WTM35, WTM36, and WTM37 are cytotoxic when applied to the HUVEC and fibroblasts used in the Angiosys™ angiogenesis assay, these reagents were examined in two different cytotoxicity assays. To simplify performance of these assays and discriminate between fibroblasts and HUVEC, cells were grown in monocultures rather than together and then treated with the experimental reagents as described below.
A Neutral Red cell metabolism assay was used to determine the cytotoxicity to HUVEC and fibroblasts of the fibrin E analogue peptides. This assay works on the basis of colorimetric measurement of a red dye which, is reported to be taken up into the lysosomes of uninjured cells. Thus the stronger the colour signal obtained from a well of cells, the greater the percentage of cells remaining viable within that well. HUVEC cells were inoculated into wells of 96 wells at a density of 5×10^3 cells per well, in endothelial cell culture medium. Fibroblasts were similarly seeded 5×10^3 cells per well. The cells were incubated for 24 hours under standard conditions to permit adherence and growth, and then treated for 72 hours with fresh medium containing fibrin E peptides over the same range of concentrations used in the Angiosys™ angiogenesis assay. For each concentration of each of the six peptides, four replicate wells of each cell type were treated and then assayed. Following incubation with the test compounds, the medium was removed and replaced with 200 μl per well of fresh medium containing 3.57 mg neutral red per 100 ml. The cells were incubated with this neutral red solution for 3 hours, after which this solution was decanted and replaced with 100 μl 1% formaldehyde/1% CaCl2. This was rapidly decanted and replaced in turn with 200 μl 50% ethanol/1% acetic acid, which was incubated at room temperature for 30 minutes to extract the neutral red from the cells. The plates were then read in a 96 well plate-format spectrophotometer, measuring absorbance at 540 nm. Mean absorbance values from each group of four wells were calculated and expressed as a percentage±standard deviation of the mean value obtained from control wells incubated in the absence of fibrin E analogue peptide.

HUVEC and fibroblasts [2] = test: BrdU ELISA cell proliferation cytotoxicity assay; type: cell-based, human; conditions: for cytotoxicity / cell proliferation, BrdU assay: HUVEC and fibroblast monocultures, 24 hours
Protocol: as §1
Cytotoxicity of the fibrin E peptide analogues was also determined by examining cell proliferation, using a commercial BrdU ELISA (Roche Molecular Biochemicals) performed according to the manufacturer's instructions. This assay quantifies DNA synthesis as a measure of cellular proliferation, as stimulation or inhibition of cell replication will require a concomitant change in the rate of DNA synthesis. Measurement of DNA synthesis is achieved by incubating proliferating cells in medium in which thymidine has been replaced with the pyrimidine analogue 5-bromo-2′-deoxyuridine (BrdU). Once incorporated into the cellular DNA, BrdU is measured by immunoassay. Briefly, HUVEC and fibroblasts were seeded as monocultures into 96 well plates at a density of 5×10^3 cells per well, to a final volume of 100 μl per well in endothelial cell culture medium. At the end of an initial culture period of 72 hours under standard conditions, while the cells were still proliferating, fibrin E analogue peptides were added to a range of final concentrations, as shown in the FIG. 8. Each treatment concentration of each peptide was administered to four replicate wells. Control cells received standard medium without test compounds. The cells were incubated for 24 hours with the test compounds, before 10 μl of stock BrdU solution (100 μM) was added to give a final concentration of 10 μM BrdU, and the cells were incubated for a further 2 hours. The test medium was then removed from the cells and replaced with 200 μl per well of Fixing/Denaturing solution, which was incubated on the cells for a further 30 minutes at room temperature. This was then replaced with 100 μl per well anti-BrdU-POD (mouse monoclonal clone BMG 6H8, Fab fragments conjugated to peroxidase) prepared as directed, which was left on the cells for a further 90 minutes at room temperature. The antibody conjugate was then removed from the wells by rinsing three times in 200 μl per well of washing buffer (PBS) before 100 μl well substrate solution (tetramethyl-benzidine) was added and incubated at room temperature until colour development was sufficient for photometric detection (approximately 15 minutes). Absorbance at 370 nm was measured on a multi-well plate ELISA plate reader (Dynatech), with a reference wavelength of 492 nm. Mean absorbance values from each group of four wells were calculated and expressed as a percentage±standard deviation of the mean value obtained from control wells incubated in the absence of fibrin E analogue peptide.

[3] = test system: Chick fibroblasts, Cos7, mouse 3T3 and human embryonic lung cells (HEL); test: Cell binding assays (absorbance at 405 nm); conditions: 0-30 mg per well; 6 hours; each of the cell types
Protocol: Chick fibroblasts, Cos7, mouse 3T3 and human embryonic lung cells (HEL) were cultured in a 25 cm^2 flask (Nunc) until confluent (approximately 3×10^6 cells). The cells were trypsinised and resuspended at concentration of 1.3×10^5 cells/ml. 200 μl of this cell suspension was added to each well of a 96 well culture plate (Nunc). The cells were incubated overnight at 37° C. to allow adherence and recovery. The cells were then divided into three sections, digoxygenin controls, PBS controls and digoxygenin labelled fragment E tests. Increasing concentrations of digoxygenin and digoxygenin labelled fibrin fragment E were applied from 0-30 mg per well. The plates were incubated for 6 hours at 37° C. under culture conditions.
The plates were emptied of media and washed three times with PBS. The cells were then incubated for 2 hours with sheep antidigoxygenin alkaline phosphatase and developed with p-nitrophenyl phosphate in bicarbonate buffer pH 9.8. The plates were read on a Titertek Multiscan plate reader at 405 nm.

Chick fibroblasts = test: Cell immunohistochemistry; type: binding; conditions: 8 mg per ml; 2 hours
Protocol: Chick fibroblasts were cultured in a 25 cm^2 flask (Nunc) until confluent (approximately 3×10^6 cells). The cells were washed in PBS and then trypsinised and diluted to 3×10^5 cells per ml in Dulbecco modified medium with 10% foetal calf serum. […] of the cells suspension was plated into each well of a Nunc culture well slide. The cells were incubated overnight to allow adhesion and recovery from the passaging. Digoxygenin labelled fibrin fragment E was added to a final concentration of 8 mg per ml. Control wells contained unconjugated digoxygenin and PBS.
The cells were rinsed after 2 hours with PBS then washed 3 times in TBS followed by one wash in distilled water. The cells were then incubated for 2 hours with sheep anti-digoxygenin alkaline phosphatase. The slides were then washed three times in TBS and developed with NBT and BCIP in bicarbonate buffer pH 9.8. The slides were air dried and then mounted for observation of membrane staining under the microscope.

Molecule: QLQEALLQQERPIRN [WTM35, QLQEALLQQERPIRN]
- cytotoxicity / cell viability, Neutral Red assay (HUVEC and fibroblasts [1]): not cytotoxic; also recorded: no toxicity
- cytotoxicity / cell proliferation, BrdU assay (HUVEC and fibroblasts [2]): not cytotoxic; also recorded: no toxicity

Molecule: SLRPAPPPISGGGYR [WTM33, SLRPAPPPISGGGYR]
- cytotoxicity / cell survival, Neutral Red assay (HUVEC and fibroblasts [1]; 3, 12, 100 μg/ml): no effect on survival of either cell type
- cytotoxicity / cell viability, Neutral Red assay (HUVEC and fibroblasts [1]): not cytotoxic
- cytotoxicity / cell survival, BrdU assay (HUVEC and fibroblasts [2]; 3, 12, 100 μg/ml): no effect on survival of either cell type
- cytotoxicity / cell proliferation, BrdU assay (HUVEC and fibroblasts [2]): not cytotoxic

Molecule: SSSSFQYMYLL [WTM37, SSSSFQYMYLL]
- cytotoxicity / cell viability, Neutral Red assay (HUVEC and fibroblasts [1]): no toxicity to either cell type
- cytotoxicity / cell proliferation, BrdU assay (HUVEC and fibroblasts [2]): no toxicity to either cell type

Molecule: SVDELNNNVEAVSQT [WTM36, SVDELNNNVEAVSQT]
- cytotoxicity / cell viability, Neutral Red assay (HUVEC and fibroblasts [1]): not cytotoxic; also recorded: no reduction in the viability of the cells
- cytotoxicity / cell proliferation, BrdU assay (HUVEC and fibroblasts [2]): not cytotoxic; also recorded: exhibited an effect on the cell proliferation
- cell proliferation, BrdU assay (HUVEC and fibroblasts [2]; higher concentrations): potential for reduction in cell proliferation

B1: fibrin fragment E: fibrin fragment E (55 kD), used digoxygenin labelled in binding experiments (protein)
chain 1: GPRVVERHQSACKDSDWPFCSDEDWNYKCPSGCRMKGLIDEVNQDFTNRINKLKNSLFEYQK
chain 2: GHRPLDKKREEAPSLRPAPPPISGGGYRARPAKAAATQKKVERKAPDAGGCLHADPDLGVLCPTGCQLQEALLQQERPIRNSVDELNNNVEAVSQTSSSSFQYMYLLK
chain 3: YVATRDNCCILDERFGSYCPTTCGIADFLSTYQTKVDKDLQSLEDILHQVENKTSEVKQLIK
- binding to cells (absorbance at 405 nm compared to controls) [3]: high absorbance
- binding to cells (membrane staining) (Chick fibroblasts): shown to bind
